This note sets out measurements from PubChem BioAssay (NCI).

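Cells were grown in 96-well plates and exposed to each compound for 48 hours at five concentrations; endpoints were interpolated linearly between bracketing concentrations, or set to the highest concentration if not reached. TGI: concentration producing complete growth inhibition.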

Common to all, as to assay: NCI-60 cell line screen, 48 h
Assay [1] relates to OVCAR-4 ovarian.
Assay [2] has as its system MDA-MB-231 breast.
In assay [3] the test system is KM12 colon.
Assay [4] concerns SF-268 CNS.
The test system of assay [5] is SW-620 colon.
For assay [6], the system named is IGROV1 ovarian.
The subject of assay [7] is OVCAR-5 ovarian.
In assay [8] the test system is SF-295 CNS.
For assay [9], the system named is CCRF-CEM leukemia.
In assay [10] the test system is MOLT-4 leukemia.
Assay [11] concerns EKVX NSCLC.
Assay [12] has as its system K-562 leukemia.
Assay [13] has as its system NCI-H522 lung.

Regarding `CCN(CC)c1ccc2cc(C(=O)Nc3ccccc3)c(=N)oc2c1`, the TGI in assay [1], in assay [2], in assay [3], in [4], in assay [5] and in assay [6] was > 100 µM throughout. In addition, the TGI in assay [7], in assay [8], in assay [9], in assay [10], in assay [11] and in [12] was > 100 µM each time.
With `Cc1nc2c(=O)n(-c3ccccc3)c3ccccc3c2o1`, the TGI in [1], in [2], in [3], in assay [4], in [5] and in [6] was > 100 µM throughout. In addition, the TGI in assay [7], in assay [8], in assay [9], in assay [10], in assay [11] and in assay [12] was > 100 µM each time.
As for `C[C@]12CC/C(=N\O)C=C1CC[C@@H]1[C@@H]2CC[C@]2(C)C(=N/O)/C(=C/c3ccc([N+](=O)[O-])cc3)C[C@@H]12`, the TGI is 44.4 µM in [1]; 29.6 µM in assay [2]; 23.6 µM in [3]; > 100 µM in assay [4]; > 100 µM in assay [5]; 12.5 µM in assay [6]. Besides, the TGI in assay [13] is 9.64 µM; in assay [8], 8.96 µM; in [9] it was 16 µM; in assay [10] it was 9.55 µM; in assay [12], 19.5 µM.
Regarding `c1ccc(-n2nc3ccc4nonc4c3n2)cc1`, the TGI in assay [1], in assay [2], in assay [3], in [4], in assay [5] and in assay [6] was > 100 µM in each case. For the same molecule, the TGI in assay [7], in [8], in assay [9], in [10], in assay [11] and in assay [12] was > 100 µM each time.
Regarding `C1=C(c2ccccc2)Nc2nnnn2C1c1ccccc1` (configuration not stated), the TGI in assay [2] is > 100 µM; in [3], 28.6 µM; in [4], > 100 µM; in assay [5], 55.9 µM; in [6], > 100 µM; in [7], > 100 µM. Besides, the TGI in [13] is 69.8 µM; in [8], 88.5 µM; in [9], 0.0305 µM; in assay [10], 60.3 µM; in [12], > 100 µM.
Turning to `CC1CC[C@@]2(OC1)OC1CC3C4CCC5C[C@@H](OC6OC(CO)C(OC7OC(CO)C(O)C(OC8OC(CO)C(O)C(OC9OC(CO)C(O)C(O)C9O)C8O)C7OC7OC(CO)C(O)C(O)C7O)C(O)C6O)[C@H](O)C[C@]5(C)C4CC[C@]3(C)C1[C@@H]2C` (some centres not stated), the TGI in assay [1], in assay [2], in assay [3], in assay [4], in assay [5] and in [7] was > 80.5 µM in each case. Also, the TGI in assay [8], in assay [9], in assay [11] and in [12] was > 80.5 µM in each case.
Regarding `COC(CC1(/C=C/O[Si](C(C)C)(C(C)C)C(C)C)C(=O)N(C)c2ccccc21)OC` (configuration not stated), the TGI in assay [1], in assay [2], in [3], in assay [4], in assay [5] and in assay [7] was > 100 µM in each case. In addition, the TGI in assay [8], in assay [9], in assay [10], in assay [11] and in [12] was > 100 µM each time.
In the case of `COc1ccc(/C(O)=C/c2nc3cccnc3nc2/C=C(\O)c2ccc(OC)cc2)cc1`, the TGI in assay [1] was 18.3 µM; in [2] it was 31.2 µM; in assay [3], > 100 µM; in assay [4], 28.6 µM; in [6], 25.4 µM; in assay [7], > 100 µM. Besides, the TGI in assay [8] is 46.3 µM; in [9], > 100 µM; in assay [10], > 100 µM; in assay [11], 82.1 µM; in assay [12] it was > 100 µM.
For the molecule `Cc1cc(S(=O)(=O)Nc2cc(N)[nH]n2)c(SCc2nc(N)nc(N(C)C)n2)cc1Cl`, the TGI in [1], in assay [3], in assay [4], in assay [5], in [6] and in [7] was > 10 µM in each case. Besides, the TGI in assay [13], in assay [8], in assay [9], in assay [10], in assay [11] and in assay [12] was > 10 µM throughout.
Consider `O=C(O)c1ccc(NC(NC(=O)C(C(F)(F)F)C(F)(F)F)(C(F)(F)F)C(F)(F)F)cc1`, for which the TGI in assay [4], in assay [5], in [6], in assay [7], in assay [9] and in assay [10] was > 100 µM each time. Also, the TGI in assay [11] and in assay [12] was > 100 µM in each case.
For `CC(=O)CSc1c(-c2ccccc2)c(=O)n(-c2ccccc2)c(=S)n1-c1ccccc1`, the TGI in [1], in [3], in assay [4], in assay [5], in [6] and in assay [7] was > 100 µM each time. Moreover, the TGI in [13], in assay [8], in [9], in assay [10], in [11] and in [12] was > 100 µM in each case.
In the case of `COc1cc(OC)c2nc(C)c3c(c2c1)NCC3`, the TGI in [1] was 15.6 µM; in assay [2], 21.8 µM; in assay [4], 20 µM; in [5], 19.1 µM; in [6], 34 µM; in [7] it was 25.6 µM. The TGI in assay [13] was 19.6 µM; in assay [8], 28.9 µM; in assay [9], 31.3 µM; in assay [12], 27.7 µM.
